# Test results as given in patent US20160090556A1, “PRODUCTS COMPRISING MALODOR REDUCTION MATERIALS” (The Procter & Gamble Company, priority 2014, published 2016).
# “And” between values parts separate entries of the source, which are not always exact repeats. Equal entries are not always repeated. Where two headings read alike, the source gives them in different places.
# Experiments:
# [1] = Fragrance Fidelity Index (FFI) assigned by perfumers/expert graders on fabric swatches; design: species or system human; key: FFI grade on reference scale anchored by 0, 1, 2, 3 swatches
# Description: (§1) Blocker materials suitable for use in consumer products of the present invention are chosen for their ability to decrease malodor, while not interfering with perception of a fragrance. Material selection is done by assigning two indices to a test sample material from two reference scales in order to rank odor strengths. The two reference scales are the Fragrance Fidelity Index (FFI) scale and the Blocker Index (BI) scale. The FFI ranks the ability of the test sample material to impart a perceivable odor which could cause interference when combined with another fragrance and the BI ranks the ability of the test sample material to reduce malodor perception. The two methods for assigning the indices to a test sample on the FFI and the BI reference scales are given below.
# (§2) The first step in the method for assigning an FFI to the test samples on the FFI reference scale is to create the FFI reference swatches. […] Fabric swatches for this test are white knit polycotton (4 inch×4 inch) swatches from EMC ordered as PC 50/50. The supplier is instructed to strip the swatches first, stripping involves washing twice with a fragrance-free detergent and rinsing three times.
# Pipette 13 μL of each of the three solutions into the middle of a clean swatch resulting in about a 1 cm diameter of the solution in the middle of the swatch. This will create a sensory scale of three swatches with three different odor levels based on the concentration of the solution pipetted onto the swatch. After drying for 30 minutes in a vented hood, the swatches are wrapped in aluminum foil to prevent odor contamination to the treated swatch. A clean untreated swatch is also included as the lowest anchor point of reference for odor strength on the FFI scale. The FFI reference scale swatches should be used within 0.5 to 12 hours and discarded after 12 hours. The swatches are used as scale anchor points when graders evaluate a test sample(s) and are assigned a Fragrance Fidelity Index (FFI) as show in Table 7.
# The perfumer/expert panel is asked to rank order swatches according to a scale between 0 and 3.
# The reference swatches represent the 0, 1, 2, and 3 FFIs on the FFI reference scale, Table 9. The expert grader should familiarize them self with the strength of the odor on the FFI reference swatches by sniffing each one starting at 0 (the lowest odor strength) and ending at 3 (the highest odor strength). This should be done prior to evaluating the test sample material treated swatch.
# A clean swatch is treated with 13 μL of a known concentration of a test sample material resulting in an about 1 cm of the solution on the clean swatch. Just like the reference swatches, the test sample material swatch is dried in a vented hood for 30 minutes and then wrapped in aluminum foil to prevent contamination. The test material swatches and the FFI reference swatches should be made within 2 hours of each other. The test material swatch must be used within 0.5 to 12 hours and discarded after 12 hours.
# At least two perfumers/expert graders are used to assign an FFI grade to a test sample. The perfumer/expert grader smells the test sample swatch by holding that swatch 1 inch from their nose with their nose centered over the area where the test sample was pipetted on to the fabric and then assigns the test sample an FFI grade using the FFI reference scale anchor swatches as references. In cases where the test sample material is graded greater than 3, the test material is not a blocker material or the concentration of the material needs to be lowered and reevaluated to determine if a lower level has a malodor blocker functionality.
# [2] = Blocker Index (BI) assigned by perfumers/expert graders on isovaleric acid swatches; design: species or system human; key: BI odor strength 0 (lowest, clean swatch) to 3 (highest)
# Description: as §1
# as §2, with “assigning a BI” for “assigning an FFI”, “to a” for “to the”, “test sample material” for “test samples”, “the BI” for “the FFI”
# The BI scale contains one clean swatch with no malodor applied. […] These solutions are pipetted to the middle of the swatches. […] After drying for 30 minutes in a vented hood, the swatches are wrapped in aluminum foil to prevent odor contamination to the treated swatch. A clean untreated swatch is also included as the lowest anchor point of reference for malodor strength on the BI scale. The BI reference scale swatches should be used within 0.5 to 12 hours and discarded after 12 hours. The swatches are used as scale anchor points when graders evaluate a test sample(s) and are assigned a Blocker Index (BI) as show in Table 12.
# The perfumer/expert grader is asked to rank order swatches according to a scale between 0 and 3.
# The reference swatches represent the 0, 1, 2, and 3 BIs on the BI reference scale, Table 12. The expert grader should familiarizes him/herself with the strength of the odor on the BI reference swatches by sniffing each one starting at 0 (the lowest odor strength) and ending at 3 (the highest odor strength). This should be done prior to evaluating the swatch treated with the test material.
# To evaluate the BI, the test material is applied to a malodorous swatch to determine how well the test material blocks the malodor. […] After drying the malodorous swatch a known concentration of test material solution, between 1 ppm and 100 ppm is pipetted onto the malodorous swatch. […] It is sometimes necessary to evaluate several levels of the test material between about 1 and about 100 ppm to determine the BI.
# At least two perfumers/expert graders are used to assign the BI to the test sample. […] The test sample swatch is assigned a BI at or between numbers on the BI in table.
# [3] = Liquid dish neat product liquid-air partition coefficient; type: physicochemical
# [4] = Probability of Ingredient Color Instability; type: physicochemical; details: for Comment Code: Probability of Ingredient Color Instability: codes E/F of the Comment Code, Table 1
# [5] = Conc 50 ppm test material on swatch
# [6] = Conc 50 ppm test material on isovaleric acid swatch
# [7] = Conc 10 ppm test material on swatch
# [8] = Conc 10 ppm test material on isovaleric acid swatch
# [9] = class code letter within Comment Code
# [10] = codes K/L of the Comment Code, Table 1
compound,measurement,setting,value
CCOC(=O)OC1C(C)CCC(C)C1C (stereo not drawn) [Material 1005],FFI,[1]; [5],0.5
same,BI,[2]; [6],2.6
CC(C)(C)C1CCCCC1 [4-tert-butyl cyclohexane],FFI,[1]; [7],0
same,FFI,[1]; [5],0.3
same,BI,[2]; [8],2.0
same,BI,[2]; [6],2.0
CCCCCCCCCCCO [Undecanol],FFI,[1]; [5],0.8
same,BI,[2]; [6],2.3
CC(CCO)CCc1ccccc1 (stereo not drawn) [Material 962],FFI,[1]; [7],0
same,FFI,[1]; [5],0.5
same,BI,[2]; [8],2.3
same,BI,[2]; [6],1.7
CC(=O)OCCCCCCC(C)C [Material 204],FFI,[1]; [7],0
same,FFI,[1]; [5],0
same,BI,[2]; [8],2.0
same,BI,[2]; [6],2.7
CCCCCCCCCCCCCCCC(=O)OC [Material 109],Log of liquid dish neat product liquid-air partition coefficient (Comment Code K/L),[3]; [9],K (Log of liquid dish neat product liquid-air partition coefficient greater than or equal to −7)
same,BI,[2]; [8],2.0
CCCCCCCCCCCCO [Material 174],FFI,[1]; [5],0.5
same,BI,[2]; [6],2.3
"CC(C)CC(=O)O [isovaleric acid, reference compound]","BI grade of reference swatch, Ave","[2]; 2 μL 0.08%, all graders (Table 10)",1.0
same,"BI grade of reference swatch, individual Expert Grader",[2]; stripped swatch with 2 μL 0.08%,0.5 and 1.0
same,"BI grade of reference swatch, individual Expert Grader",[2]; stripped swatch with 5 μL 0.08%,2.5
same,"BI grade of reference swatch, individual Expert Grader",[2]; stripped swatch with 20 μL 0.08%,2.5
CC1CCC2(O1)C(C)(C)CCCC2(C)O (stereo not drawn) [Material 893],Log of liquid dish neat product liquid-air partition coefficient (Comment Code K/L),[3],K (Log of liquid dish neat product liquid-air partition coefficient greater than or equal to −7)
same,Probability of Ingredient Color Instability (Comment Code E/F),[4],F (Probability of Ingredient Color Instability<71%)
CC(C=O)=CCC1C(C)=CCCC1(C)C (stereo not drawn) [Material 1116],Comment Code: Log of liquid dish neat product liquid-air partition coefficient,[3]; [10],K (Log of liquid dish neat product liquid-air partition coefficient greater than or equal to −7)
same,Comment Code: Probability of Ingredient Color Instability,[4],F (Probability of Ingredient Color Instability<71%)
CC1=C2CC(C(C)(C)O)CCC2(C)CCC1 (stereo not drawn) [Material 872],Log of liquid dish neat product liquid-air partition coefficient (Comment Code K/L),[3],K (Log of liquid dish neat product liquid-air partition coefficient greater than or equal to −7)
same,Comment Code: Log of liquid dish neat product liquid-air partition coefficient,"[3]; code letters K, L",K (Log of liquid dish neat product liquid-air partition coefficient greater than or equal to −7)
same,Probability of Ingredient Color Instability (Comment Code E/F),[4],F (Probability of Ingredient Color Instability<71%)
CC(C)CCCC(C)CCCC(C)C=O (stereo not drawn) [Material 741],Log of liquid dish neat product liquid-air partition coefficient (Comment Code K/L),[3],K (Log of liquid dish neat product liquid-air partition coefficient greater than or equal to −7)
same,Probability of Ingredient Color Instability (Comment Code E/F),[4],F (Probability of Ingredient Color Instability<71%)
CC(C)(C=O)CC1=CCC2CC1C2(C)C (stereo not drawn) [Material 925],Log of liquid dish neat product liquid-air partition coefficient (Comment Code K/L),[3],K (Log of liquid dish neat product liquid-air partition coefficient greater than or equal to −7)
same,Probability of Ingredient Color Instability (Comment Code E/F),[4],F (Probability of Ingredient Color Instability<71%)
CC1=CCCC2(C)OC2CCC(C)=CCC1 (racemic) [Material 568],Log of liquid dish neat product liquid-air partition coefficient (Comment Code K/L),[3],K (Log of liquid dish neat product liquid-air partition coefficient greater than or equal to −7)
same,Probability of Ingredient Color Instability (Comment Code E/F),[4],F (Probability of Ingredient Color Instability<71%)
C=CCc1ccc(OC(C)=O)c(OC)c1 [Material 374],Log of liquid dish neat product liquid-air partition coefficient (Comment Code K/L),[3]; [9],K (Log of liquid dish neat product liquid-air partition coefficient greater than or equal to −7)
same,Probability of Ingredient Color Instability (Comment Code E/F),[4]; [9],F (Probability of Ingredient Color Instability<71%)
"O=C1CCC2CCCCC2O1 (stereo not drawn) [3,4,4a,5,6,7,8,8a-octahydrochromen-2-one]",FFI,[1]; [7],0
same,FFI,[1]; [5],0
same,BI,[2]; [8],2.0
same,BI,[2]; [6],2.0
O=CCCC=C1CC2CC1C1CCCC21 (stereo not drawn) [Material 418],Log of liquid dish neat product liquid-air partition coefficient (Comment Code K/L),[3]; [9],K (Log of liquid dish neat product liquid-air partition coefficient greater than or equal to −7)
same,Probability of Ingredient Color Instability (Comment Code E/F),[4]; [9],F (Probability of Ingredient Color Instability<71%)
CC1=CC2CC(C=O)C1CC2C(C)C (stereo not drawn) [Material 142],Log of liquid dish neat product liquid-air partition coefficient (Comment Code K/L),[3]; [9],K (Log of liquid dish neat product liquid-air partition coefficient greater than or equal to −7)
same,Probability of Ingredient Color Instability (Comment Code E/F),[4]; [9],F (Probability of Ingredient Color Instability<71%)
CCC1=C(O)C(=O)C(C)O1 (stereo not drawn) [Material 259],Log of liquid dish neat product liquid-air partition coefficient (Comment Code K/L),[3]; [9],K (Log of liquid dish neat product liquid-air partition coefficient greater than or equal to −7)
same,Probability of Ingredient Color Instability (Comment Code E/F),[4]; [9],F (Probability of Ingredient Color Instability<71%)
CCCCCCCCCCCC=O [Material 178],Log of liquid dish neat product liquid-air partition coefficient (Comment Code K/L),[3]; [9],K (Log of liquid dish neat product liquid-air partition coefficient greater than or equal to −7)
same,Probability of Ingredient Color Instability (Comment Code E/F),[4]; [9],F (Probability of Ingredient Color Instability<71%)
CCOC(=O)C1OC1(C)c1ccccc1 (stereo not drawn) [Material 377],Log of liquid dish neat product liquid-air partition coefficient (Comment Code K/L),[3]; [9],K (Log of liquid dish neat product liquid-air partition coefficient greater than or equal to −7)
same,Probability of Ingredient Color Instability (Comment Code E/F),[4]; [9],F (Probability of Ingredient Color Instability<71%)
CC1CC(C)(c2ccccc2)OC(C)O1 (stereo not drawn) [Material 1126],Comment Code: Log of liquid dish neat product liquid-air partition coefficient,[3]; [10],K (Log of liquid dish neat product liquid-air partition coefficient greater than or equal to −7)
same,Comment Code: Probability of Ingredient Color Instability,[4],F (Probability of Ingredient Color Instability<71%)
CC(C)=CCCC1=CCC(C)(C=O)CC1 (stereo not drawn) [Material 988],Log of liquid dish neat product liquid-air partition coefficient (Comment Code K/L),[3],K (Log of liquid dish neat product liquid-air partition coefficient greater than or equal to −7)
same,Probability of Ingredient Color Instability (Comment Code E/F),[4],F (Probability of Ingredient Color Instability<71%)
CCCCCCCCCCC=CC=O [Material 930],Log of liquid dish neat product liquid-air partition coefficient (Comment Code K/L),[3],K (Log of liquid dish neat product liquid-air partition coefficient greater than or equal to −7)
same,Probability of Ingredient Color Instability (Comment Code E/F),[4],F (Probability of Ingredient Color Instability<71%)
CC(C)=CCCC1=CCC(C=O)CC1 (stereo not drawn) [Material 211],Log of liquid dish neat product liquid-air partition coefficient (Comment Code K/L),[3]; [9],K (Log of liquid dish neat product liquid-air partition coefficient greater than or equal to −7)
same,Probability of Ingredient Color Instability (Comment Code E/F),[4]; [9],F (Probability of Ingredient Color Instability<71%)
CC(C)=CCCC(C)CCCC(C)C=O (stereo not drawn) [Material 757],Log of liquid dish neat product liquid-air partition coefficient (Comment Code K/L),[3],K (Log of liquid dish neat product liquid-air partition coefficient greater than or equal to −7)
same,Probability of Ingredient Color Instability (Comment Code E/F),[4],F (Probability of Ingredient Color Instability<71%)
